According to US6418341B1, “Needle electrode assembly for electroporation mediated delivery of genes and drugs” (Genetronics, Inc., priority 1993, dated 2002):
“Also recorded” adds a separate entry of the source. Marks after values point to notes of the source that are not given here.

Tests used:
[1] = tested on: poorly differentiated human pancreatic tumor (Panc-3); experiment: Electrochemotherapy (ECT) of Panc-3 tumors xenografted subcutaneously in nude mice; assay type: in vivo; conditions: for Overall outcome of the electrochemotherapy protocol: needle array electrodes
Protocol: The following examples illustrate the use of electrochemotherapy (ECT) of a poorly differentiated human pancreatic tumor (Panc-3) xenografted subcutaneously on the left flank of nude mice. The single treatment procedure involved injection of bleomycin (0.5 units in 0.15 ml saline) intratumorally, using fanning, as described herein followed by application of six square wave electrical pulses, ten minutes later, using proprietary needle array electrodes arranged along the circumference of a circle 1 cm in diameter. Needle array of variable diameters (e.g., 0.5 cm, 0.75 cm and 1.5 cm can also be used to accommodate tumors of various sizes. Stoppers of various heights can be inserted at the center of the array to make the penetration depth of the needles into the tumor variable. A built-in mechanism allowed switching of electrodes for maximum coverage of the tumor by the pulsed field. The electrical parameters were: 1300 V/cm and 6×99 μs pulses spaced at 1 sec interval.
The tumor cell line Panc-3, a poorly differentiated adenocarcinoma cell line of the pancreas, was supplied by AntiCancer, Inc., San Diego. For ECT experiments, tissue taken from the stock mice, where the tumor fine was maintained, was thawed and cut into very small pieces about 1 mm each, and 8-10 pieces were surgically xenografted in a subcutaneous sac made in left flank of nude mice, and then closed with 6.0 surgical suture. After the average tumor size reached about 5 mm, mice with palpable tumors were divided randomly, 10 mice for control group (D+E−; D=Drug, E=Electric field) and 10 mice for ECT treatment namely bleomycin injection followed by pulsing (D+E+) from a BTX Square Wave T820 Generator. The tumor dimensions were measured and the tumor volume calculated using the formula: […]
where a, b, and c are, respectively, the length, width and thickness of the tumor. 0.5 units Bleomycin (Sigma Chemicals) was dissolved in 0.15 ml of 0.9% NaCl and was injected in each mice intratumorally by fanning for both the control (D+E−) and the treated (D+E+) groups. Ten minutes after the injection, each mouse in the D+E+ group was pulsed from a BTX T820 square wave electroporator with a set of needle array electrodes as described in the present invention. Electrical parameters used were as follows: field strength 1300 V/cm, 6 pulses of 99 μs each, at 1 sec interval.
(§1) The mice were monitored every day for mortality and any signs of a diseased state were noted. The tumor dimensions were measured at regular intervals and tumor growth regression/progression monitored. Another set of nude mice with xenografts of non-small cell lung cancer line was also treated by the same procedure as for the Panc-3 tumors.
(§2) The Panc-3 and NSCLC models were utilized with the drug neocarcinostatin (NCS) following the same procedures as outlined above. […] It was believed that due to the low isoelectric point of NCS, electrostatic interaction prevented the drug from entering the tumor cell. Therefore, the experiment was repeated by pulsing first and injecting NCS post-pulse.

[2] = tested on: non-small cell lung cancer cell line (NSCLC), 177; experiment: Electrochemotherapy (ECT) of non-small cell lung cancer xenografts in nude mice; assay type: in vivo; conditions: for Overall outcome of the electrochemotherapy protocol: needle array electrodes
Protocol: as §1, §2

[3] = P = partition coefficient between octanol and water; cited from earlier work
cancerous tumors = conditions: low dose injected, tumors then electroporated with square wave pulses; cited from earlier work
[4] = ECT, 10 mice treated, 28 days after treatment
[5] = ECT, 10 mice treated, 35 days after treatment
[6] = ECT, 10 mice treated, 57 days after treatment
[7] = ECT, 10 mice treated, 77 days after treatment

neocarcinostatin [NCS]
Post-pulse compared with pre-pulse administration ([1]; FIGS. 14a and b versus 14c and d): more effective than pre-pulse administration
Overall outcome of the electrochemotherapy protocol [1]: effectively treated
Final versus initial tumor volume ([1]; post-pulse dosing, day 13, 7 mice, mouse ID 1, 2, 4 and 7, appeared to be due to edema (FIG. 14c)): an increase in tumor volume was observed
Change of tumor volume ([1]; post-pulse dosing, day 23, separate group of 5 mice (FIG. 14d)): all mice showed a marked reduction in tumor volume
Reduction of tumor size ([1]; pre-pulse dosing (FIG. 14a)): not effective in reducing tumor size at all
Overall outcome of the electrochemotherapy protocol [2]: effectively treated
Reduction of tumor size ([2]; pre-pulse dosing (FIG. 14b)): not effective in reducing tumor size at all

bleomycin
log P [3]: very negative
Histological analysis of tumor samples ([1]; D+E+ group (ECT)): severe necrosis of the tumor region; also recorded: necrotic tumor cell ghosts
Cases with partial regression (80% reduction in tumor volume) ([1]; ECT (D+E+)): 30%
Necrosis and edema at the treatment site ([1]; ECT (D+E+)): severe necrosis and edema in nearly all the mice
Mice with tumor regrowth ([1]; ECT (D+E+), 35 days after treatment, much slower growth rate than control): 20%
Cases with complete regression with no palpable tumor ([1]; ECT (D+E+), 77 days after the single treatment): 60%
Time after which essentially no detectable tumor ([1]; ECT (D+E+), FIG. 10): approximately 24 days
CR (100%), Complete Regression, number of mice [1, 4]: 6
NR (%), No Response, number of mice [1, 4]: 1
PR (80%), Partial Regression, number of mice [1, 4]: 3
CR (100%), Complete Regression, number of mice [1, 5]: 6
NR (%), No Response, number of mice [1, 5]: 1
Tumor regrowth, number of mice [1, 5]: 2
CR (100%), Complete Regression, number of mice [1, 6]: 6
NR (%), No Response, number of mice [1, 6]: 1
CR (100%), Complete Regression, number of mice [1, 7]: 6
NR (%), No Response, number of mice [1, 7]: 1
Death, number of mice ([1]; ECT, 10 mice treated, 77 days after treatment, 1 died after retreatment, 1 after 64 days survival): 2*
Effect of intratumoral injection with larger volume combined with fanning ([1]; compared to the conventional mode of injecting the drug prior to pulsing): very effective
Change of tumor volume ([1]; control group D+E- (drug, no electrical field)): increased dramatically
Tumor volume (mm^3) C1 ([1]; control mouse C1 (D+E-), 1 day after treatment): 206.979 mm^3
Tumor volume (mm^3) C1 ([1]; control mouse C1 (D+E-), 8 days after treatment): 394.786 mm^3
Tumor volume (mm^3) C1 ([1]; control mouse C1 (D+E-), 15 days after treatment): 557.349 mm^3
Tumor volume (mm^3) C1 ([1]; control mouse C1 (D+E-), 18 days after treatment): 939.582 mm^3
Tumor volume (mm^3) C1 ([1]; control mouse C1 (D+E-), 24 days after treatment): 1391.057 mm^3
Tumor volume (mm^3) C1 ([1]; control mouse C1 (D+E-), 28 days after treatment): 1628.631 mm^3
Tumor volume (mm^3) C1 ([1]; control mouse C1 (D+E-), 35 days after treatment): 2619.765 mm^3
Tumor volume (mm^3) C1 ([1]; control mouse C1 (D+E-), 38 days after treatment): 2908.912 mm^3
Tumor volume (mm^3) C1 ([1]; control mouse C1 (D+E-), 43 days after treatment): 3708.571 mm^3
Tumor volume (mm^3) C1 ([1]; control mouse C1 (D+E-, bleomycin 0.5 units intratumoral, no pulsing), 0 days after treatment): 138.746 mm^3
Tumor volume (mm^3) C2 ([1]; control mouse C2 (D+E-), 1 day after treatment): 179.82 mm^3
Tumor volume (mm^3) C2 ([1]; control mouse C2 (D+E-), 8 days after treatment): 451.787 mm^3
Tumor volume (mm^3) C2 ([1]; control mouse C2 (D+E-), 15 days after treatment): 798.919 mm^3
Tumor volume (mm^3) C2 ([1]; control mouse C2 (D+E-), 18 days after treatment): 881.752 mm^3
Tumor volume (mm^3) C2 ([1]; control mouse C2 (D+E-), 24 days after treatment): 1406.98 mm^3
Tumor volume (mm^3) C2 ([1]; control mouse C2 (D+E-), 28 days after treatment): 1474.21 mm^3
Tumor volume (mm^3) C2 ([1]; control mouse C2 (D+E-), 35 days after treatment): 2330.31 mm^3
Tumor volume (mm^3) C2 ([1]; control mouse C2 (D+E-), 38 days after treatment): 2333.967 mm^3
Tumor volume (mm^3) C2 ([1]; control mouse C2 (D+E-), 43 days after treatment): 5381.759 mm^3
Tumor volume (mm^3) C2 ([1]; control mouse C2 (D+E-, bleomycin 0.5 units intratumoral, no pulsing), 0 days after treatment): 148.94 mm^3
Overall outcome of the electrochemotherapy protocol [1]: effectively treated
Mice with no response ([1]; treated by ECT (D+E+)): 10%
Mice with nearly complete tumor regression ([1]; treated by ECT (D+E+), after 28 days): 90%
Change of tumor volume ([1]; treated group D+E+, after a slight initial increase due to edema): substantial reduction in the tumor volume
Tumor volume (mm^3) T1 ([1]; treated mouse T1 (D+E+), 1 day after treatment): 210.95 mm^3
Tumor volume (mm^3) T1 ([1]; treated mouse T1 (D+E+), 8 days after treatment): 104.55 mm^3
Tumor volume (mm^3) T1 ([1]; treated mouse T1 (D+E+), 15 days after treatment): 113.21 mm^3
Tumor volume (mm^3) T1 ([1]; treated mouse T1 (D+E+), 18 days after treatment): 161.73 mm^3
Tumor volume (mm^3) T1 ([1]; treated mouse T1 (D+E+), 24 days after treatment): 41.56 mm^3
Tumor volume (mm^3) T1 ([1]; treated mouse T1 (D+E+), 28 days after treatment): 0 mm^3
Tumor volume (mm^3) T1 ([1]; treated mouse T1 (D+E+), 35 days after treatment): 0 mm^3
Tumor volume (mm^3) T1 ([1]; treated mouse T1 (D+E+), 38 days after treatment): 0 mm^3
Tumor volume (mm^3) T1 ([1]; treated mouse T1 (D+E+), 43 days after treatment): 0 mm^3
Tumor volume (mm^3) T1 ([1]; treated mouse T1 (D+E+, bleomycin 0.5 units intratumoral + 1300 V/cm 6x99 μs pulses), 0 days after treatment): 123.11 mm^3
Tumor volume (mm^3) T2 ([1]; treated mouse T2 (D+E+), 1 day after treatment): 252.72 mm^3
Tumor volume (mm^3) T2 ([1]; treated mouse T2 (D+E+), 8 days after treatment): 211.11 mm^3
Tumor volume (mm^3) T2 ([1]; treated mouse T2 (D+E+), 15 days after treatment): 226.966 mm^3
Tumor volume (mm^3) T2 ([1]; treated mouse T2 (D+E+), 18 days after treatment): 246.91 mm^3
Tumor volume (mm^3) T2 ([1]; treated mouse T2 (D+E+), 24 days after treatment): 47.2228 mm^3
Tumor volume (mm^3) T2 ([1]; treated mouse T2 (D+E+), 28 days after treatment): 0 mm^3
Tumor volume (mm^3) T2 ([1]; treated mouse T2 (D+E+), 35 days after treatment): 0 mm^3
Tumor volume (mm^3) T2 ([1]; treated mouse T2 (D+E+), 38 days after treatment): 0 mm^3
Tumor volume (mm^3) T2 ([1]; treated mouse T2 (D+E+), 43 days after treatment): 0 mm^3
Tumor volume (mm^3) T2 ([1]; treated mouse T2 (D+E+, bleomycin 0.5 units intratumoral + 1300 V/cm 6x99 μs pulses), 0 days after treatment): 178.37 mm^3
Tumor response (cancerous tumors): reduction or complete remission of the tumors
Result of ECT treatment on tumor volume ([2]; ECT as for Panc-3, FIGS. 12a, 12b): very encouraging results
Overall outcome of the electrochemotherapy protocol [2]: effectively treated
Tumor after retreatment of a recurred tumor ([2]; one mouse retreated at day 27, 7 days after retreatment (FIG. 13)): no evidence of tumor
